In PubChem BioAssay AID1745844 (Carcinogenic Potency Database (CPDB), 2022) one finds carcinogen call and TD50 data, which are given here for nine molecules.

Activity calls are given as the source filed them. How the calls were made is not given here.

Usually TD50 stands for the 50% point of the dose-response relation for the toxic effect studied.

In the data set the test system is rodent lifetime carcinogenesis bioassay, tumor incidence TD50. Put plainly: chronic cancer bioassays in animals – CPDB, compiled studies (AID 1745844).

As for `Nc1nc(N)nc(-c2cc(Cl)ccc2Cl)n1`, for the setting “rat, strain Wistar, males, in feed, site: liver, lesion: one or several types, types not named, dosed 55 weeks, study length 55 weeks”, the carcinogen call is “negative (inactive)”.
Regarding `CCCc1cc(=O)[nH]c(=S)[nH]1`, the TD50 is 409 mg/kg/day (mouse, strain C57BL, both sexes, in feed, site: pituitary gland, lesion: adenoma, dosed 73 weeks, study length 73 weeks); 10.3 mg/kg/day (rat, strain Long-Evans, males, in feed, site: thyroid gland, lesion: adenoma, dosed 52 weeks, study length 52 weeks); 15.8 mg/kg/day (rat, strain Wistar albino, females, in drinking water, site: thyroid gland, lesion: adenoma, dosed 78 weeks, study length 78 weeks); 115 mg/kg/day (rat, strain Wistar albino, females, in drinking water, site: thyroid gland, lesion: carcinoma, dosed 78 weeks, study length 78 weeks); 17.2 mg/kg/day (rat, strain Wistar albino, males, in drinking water, site: thyroid gland, lesion: adenoma, dosed 78 weeks, study length 78 weeks); 79.3 mg/kg/day (rat, strain Wistar albino, males, in drinking water, site: thyroid gland, lesion: carcinoma, dosed 78 weeks, study length 78 weeks). Moreover, the carcinogen call (rat, strain Wistar, males, in drinking water, site: thyroid gland, lesion: adenoma, dosed 26 weeks, study length 104 weeks) was “negative (inactive)”.
For the molecule `C[C@@H]1O[C@@]2(CS1)CN1CCC2CC1`, the carcinogen call (rat, strain F344/DuCrj, females, by gavage, site: liver, lesion: one or several types, types not named, dosed 52 weeks, study length 52 weeks) was “negative (inactive)” and the carcinogen call (rat, strain F344/DuCrj, males, by gavage, site: liver, lesion: one or several types, types not named, dosed 52 weeks, study length 52 weeks) is “negative (inactive)”.
As for `Cc1ccc2ncccc2c1`, the TD50 reads like this: (rat, strain Fischer 344, females, in feed, site: liver, lesion: hyperplastic nodule, dosed 104 weeks, study length 104 weeks) 230 mg/kg/day (inactive); (rat, strain Fischer 344, males, in feed, site: liver, lesion: hyperplastic nodule, dosed 104 weeks, study length 104 weeks) 123 mg/kg/day (inactive).
Consider `CCCCCC(N)=O`, for which the carcinogen call was “negative (inactive)” (mouse, strain C57BL/6, females, in feed, site: liver, lesion: hepatocellular carcinoma, dosed 52 weeks, study length 69 weeks); “negative (inactive)” (rat, strain Fischer 344, females, in feed, site: liver, lesion: one or several types, types not named, dosed 52 weeks, study length 69 weeks); “negative (inactive)” (rat, strain Fischer 344, males, in feed, site: liver, lesion: one or several types, types not named, dosed 52 weeks, study length 69 weeks). Also, the TD50 runs as follows: (mouse, strain C57BL/6, females, in feed, site: lung, lesion: alveolar/bronchiolar adenoma, dosed 52 weeks, study length 69 weeks) 37200 mg/kg/day (inactive); (mouse, strain C57BL/6, females, in feed, site: stomach, lesion: squamous-cell papilloma, dosed 52 weeks, study length 69 weeks) 8900 mg/kg/day; (mouse, strain C57BL/6, males, in feed, site: all sites, lesion: malignant lymphoma, histiocytic type, dosed 52 weeks, study length 69 weeks) 2140 mg/kg/day; (mouse, strain C57BL/6, males, in feed, site: all sites, lesion: several types, types named in the paper, dosed 52 weeks, study length 69 weeks) 1950 mg/kg/day; (mouse, strain C57BL/6, males, in feed, site: liver, lesion: hemangiosarcoma, dosed 52 weeks, study length 69 weeks) 25300 mg/kg/day (inactive); (mouse, strain C57BL/6, males, in feed, site: liver, lesion: malignant lymphoma, histiocytic type, dosed 52 weeks, study length 69 weeks) 25300 mg/kg/day. Further, the TD50 was 3490 mg/kg/day (inactive) (mouse, strain C57BL/6, males, in feed, site: lung, lesion: alveolar/bronchiolar adenoma, dosed 52 weeks, study length 69 weeks) and 2660 mg/kg/day (mouse, strain C57BL/6, males, in feed, site: multiple organs, lesion: malignant lymphoma, histiocytic type, dosed 52 weeks, study length 69 weeks).
`[Ge+4].[Na+].[Na+].[O-2].[O-2].[O-2]`: the carcinogen call is “negative (inactive)” (mouse, strain Charles River CD1, both sexes, in drinking water, site: any site (literature study), lesion: benign tumor, dosed 104 weeks, study length 104 weeks); “negative (inactive)” (mouse, strain Charles River CD1, both sexes, in drinking water, site: any site (literature study), lesion: malignant tumor, dosed 104 weeks, study length 104 weeks); “negative (inactive)” (mouse, strain Charles River CD1, both sexes, in drinking water, site: any site (literature study), lesion: several types, types named in the paper, dosed 104 weeks, study length 104 weeks); “negative (inactive)” (mouse, strain Charles River CD1, both sexes, in drinking water, site: liver, lesion: several types, types named in the paper, dosed 104 weeks, study length 104 weeks); “negative (inactive)” (mouse, strain Charles River CD1, both sexes, in drinking water, site: lung, lesion: several types, types named in the paper, dosed 104 weeks, study length 104 weeks); “negative (inactive)” (rat, strain Long-Evans BLU:(LE), both sexes, in drinking water, site: any site (literature study), lesion: malignant tumor, dosed 149 weeks, study length 149 weeks). Moreover, the carcinogen call is “negative (inactive)” (rat, strain Long-Evans BLU:(LE), both sexes, in drinking water, site: any site (literature study), lesion: one or several types, types not named, dosed 149 weeks, study length 149 weeks) and “negative (inactive)” (rat, strain Long-Evans BLU:(LE), both sexes, in drinking water, site: liver, lesion: one or several types, types not named, dosed 149 weeks, study length 149 weeks).
In the case of `CC1=NN(c2ccccc2)C(=O)C1`, the carcinogen call was “negative (inactive)” (mouse, strain B6C3F1, females, in feed, site: any site (literature study), lesion: several types, types named in the paper, dosed 102 weeks, study length 104 weeks); “negative (inactive)” (mouse, strain B6C3F1, males, in feed, site: any site (literature study), lesion: several types, types named in the paper, dosed 102 weeks, study length 104 weeks); “negative (inactive)” (rat, strain Fischer 344, females, in feed, site: any site (literature study), lesion: several types, types named in the paper, dosed 103 weeks, study length 105 weeks); “negative (inactive)” (rat, strain Fischer 344, males, in feed, site: any site (literature study), lesion: several types, types named in the paper, dosed 103 weeks, study length 105 weeks). In addition, the TD50 (rat, strain Fischer 344, males, in feed, site: liver, lesion: hepatocellular adenoma + hepatocellular carcinoma + neoplastic nodule, dosed 103 weeks, study length 105 weeks) is 3700 mg/kg/day.
With `NNCCO`, the TD50 was 148 mg/kg/day (inactive) (hamster, strain Syrian Golden, females, in drinking water, site: liver, lesion: hepatoma, dosed 84 weeks, study length 84 weeks); 84.4 mg/kg/day (inactive) (hamster, strain Syrian Golden, males, in drinking water, site: liver, lesion: hepatoma, dosed 84 weeks, study length 84 weeks); 5.34 mg/kg/day (mouse, strain B6AKF1, females, oral dosing, site: any site (literature study), lesion: several types, types named in the paper, dosed 78 weeks, study length 78 weeks); 0.404 mg/kg/day (mouse, strain B6AKF1, males, oral dosing, site: any site (literature study), lesion: several types, types named in the paper, dosed 78 weeks, study length 78 weeks); 0.314 mg/kg/day (mouse, strain B6AKF1, males, oral dosing, site: liver, lesion: hepatoma, dosed 78 weeks, study length 78 weeks); 4.77 mg/kg/day (mouse, strain B6C3F1, females, oral dosing, site: any site (literature study), lesion: several types, types named in the paper, dosed 78 weeks, study length 78 weeks). For the same molecule, the TD50 runs as follows: (mouse, strain B6C3F1, females, oral dosing, site: liver, lesion: hepatoma, dosed 78 weeks, study length 78 weeks) 4.77 mg/kg/day; (mouse, strain B6C3F1, females, oral dosing, site: lung, lesion: adenoma, dosed 78 weeks, study length 78 weeks) 4.77 mg/kg/day; (mouse, strain B6C3F1, males, oral dosing, site: any site (literature study), lesion: several types, types named in the paper, dosed 78 weeks, study length 78 weeks) 0.713 mg/kg/day; (mouse, strain B6C3F1, males, oral dosing, site: liver, lesion: hepatoma, dosed 78 weeks, study length 78 weeks) 0.541 mg/kg/day. For the same molecule, the carcinogen call is “negative (inactive)” (mouse, strain Swiss, females, in drinking water, site: lung, lesion: one or several types, types not named, dosed 75 weeks, study length 75 weeks); “negative (inactive)” (mouse, strain Swiss, males, in drinking water, site: liver, lesion: several types, types named in the paper, dosed 75 weeks, study length 75 weeks); “negative (inactive)” (mouse, strain Swiss, males, in drinking water, site: lung, lesion: one or several types, types not named, dosed 75 weeks, study length 75 weeks).
Take `CC1(C)S[C@@H]2[C@H](NC(=O)COc3ccccc3)C(=O)N2[C@H]1C(=O)O`: the carcinogen call (mouse, strain B6C3F1, females, by gavage, site: any site (literature study), lesion: several types, types named in the paper, dosed 104 weeks, study length 104 weeks) was “negative (inactive)” and the carcinogen call (mouse, strain B6C3F1, males, by gavage, site: any site (literature study), lesion: several types, types named in the paper, dosed 104 weeks, study length 104 weeks) was “negative (inactive)”. For the same molecule, the TD50 (mouse, strain B6C3F1, females, by gavage, site: liver, lesion: hepatocellular adenoma + hepatocellular carcinoma + neoplastic nodule, dosed 104 weeks, study length 104 weeks) came out at 10200 mg/kg/day; the TD50 (mouse, strain B6C3F1, females, by gavage, site: lung, lesion: alveolar/bronchiolar adenoma + alveolar/bronchiolar carcinoma, dosed 104 weeks, study length 104 weeks) is 16600 mg/kg/day; the TD50 (rat, strain Fischer 344, females, by gavage, site: any site (literature study), lesion: several types, types named in the paper, dosed 103 weeks, study length 104 weeks) is 503 mg/kg/day; the TD50 (rat, strain Fischer 344, females, by gavage, site: clitoral gland, lesion: adenoma, NOS, dosed 103 weeks, study length 104 weeks) came to 3650 mg/kg/day; the TD50 (rat, strain Fischer 344, females, by gavage, site: thyroid gland, lesion: c-cell adenoma + c-cell carcinoma, dosed 103 weeks, study length 104 weeks) was 1360 mg/kg/day (inactive); the TD50 (rat, strain Fischer 344, females, by gavage, site: thyroid gland, lesion: c-cell adenoma, dosed 103 weeks, study length 104 weeks) was found to be 1620 mg/kg/day. Further, the TD50 (rat, strain Fischer 344, males, by gavage, site: any site (literature study), lesion: several types, types named in the paper, dosed 103 weeks, study length 104 weeks) came out at 544 mg/kg/day; the TD50 (rat, strain Fischer 344, males, by gavage, site: liver, lesion: hepatocellular adenoma + hepatocellular carcinoma + neoplastic nodule, dosed 103 weeks, study length 104 weeks) turned out to be 12200 mg/kg/day; the TD50 (rat, strain Fischer 344, males, by gavage, site: pituitary gland, anterior, lesion: adenoma, NOS + carcinoma, NOS, dosed 103 weeks, study length 104 weeks) was 874 mg/kg/day (inactive); the TD50 (rat, strain Fischer 344, males, by gavage, site: pituitary gland, anterior, lesion: adenoma, NOS, dosed 103 weeks, study length 104 weeks) came out at 949 mg/kg/day.
